The text below walks through data of US20240025906A1 (NEURON23, INC., priority 2022, published 2024).

Where two headings read alike, the source gives them in different places.

The target of one assay is T1, TYK2 JH2 (Homo sapiens, UniProt P29597).
T1 construct: purchased DiscoverX (KINOMEscan KdELECT service); host or cells: E. coli BL21-derived (T7 phage display) or HEK-293
The assay is described as follows: TYK2 JH2 binding assay (KINOMEscan KdELECT competitive binding). Particulars: TYK2 JH2 domain, read-out: Biochemical TYK2_DiscoverX_JH2_BND_Kd. The procedure, abridged:
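Beads carrying a biotinylated ligand were mixed with tagged JH2 kinase and compound (11 points, 3-fold steps, 0.9% DMSO) and shaken 1 h at room temperature. After washing, kinase was released with 0.5 μM untagged ligand over 30 min and measured by qPCR to derive Kd.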

The test system of assay [1] is JAK1/TYK2 pSTAT5 (Tyr694/699) in THP-1 cell line. The assay is described as follows: IFNa-stimulated JAK1/TYK2 pSTAT5 (Tyr694/699) inhibition cellular assay, AlphaLISA. The format is cell-based. Particulars: Homo sapiens; THP-1 cells, IFNa-stimulated, AlphaLISA (Assay B); read-out: Cellular_THP1_IFNa-pSTATS_TYK2. The procedure, abridged:
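THP-1 cells (2e4/well in HBSS) were preincubated with compound (8 points, 6-fold steps from 10000 nM final) for 1 h at 37 °C, then stimulated with IFNa (added at 100 ng/mL) for 30 min. Lysate pSTAT5 was read by AlphaLISA at 615 nm. IC50 came from a 4-parameter fit with bottom 0 and Hill −1.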

The mark [2] stands for this setting: DiscoverX KINOMEscan KdELECT (Assay A).

T1 sequence (P29597 589-875 limits assumed): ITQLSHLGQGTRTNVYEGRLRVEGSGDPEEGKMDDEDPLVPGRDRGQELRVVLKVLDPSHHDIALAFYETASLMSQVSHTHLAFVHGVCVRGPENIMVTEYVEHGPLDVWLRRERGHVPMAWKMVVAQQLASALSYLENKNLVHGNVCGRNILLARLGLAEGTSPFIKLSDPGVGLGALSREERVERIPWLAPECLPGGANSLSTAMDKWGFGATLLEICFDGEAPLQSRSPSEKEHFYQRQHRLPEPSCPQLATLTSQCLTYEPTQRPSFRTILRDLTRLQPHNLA

In the case of `CCNc1ncc(-c2nc3ccc(N4CCOCC4)cn3n2)c2cc(NC(=O)C3(F)CC3)ncc12` [Example 580, N-(8-(ethylamino)-5-(6-morpholino-[1,2,4]triazolo[1,5-a]pyridin-2-yl)-2,7-naphthyridin-3-yl)-1-fluorocyclopropane-1-carboxamide], the Kd at TYK2 JH2 (setting [2]) was not above 100 nM. The IC50 in assay [1] was not above 500 nM.

As for `CCNc1ncc(-c2nc3ccc(N4CC5CN(C)CC(C4)O5)cn3n2)c2cc(NC(=O)C3CC3)ncc12` [Example 581, N-(8-(ethylamino)-5-(6-(7-methyl-9-oxa-3,7-diazabicyclo[3.3.1]nonan-3-yl)-[1,2,4]triazolo[1,5-a]pyridin-2-yl)-2,7-naphthyridin-3-yl)cyclopropanecarboxamide], at TYK2 JH2 (setting [2]), the Kd is not above 100 nM. Further, in assay [1], the IC50 was not above 500 nM.

`CNc1ncc(-c2nc3ccc(N4CC5CN(C6CC6)CC(C4)O5)cn3n2)c2cc(NC(=O)C3CC3)ncc12` [Example 582, N-(5-(6-(7-cyclopropyl-9-oxa-3,7-diazabicyclo[3.3.1]nonan-3-yl)-[1,2,4]triazolo[1,5-a]pyridin-2-yl)-8-(methylamino)-2,7-naphthyridin-3-yl)cyclopropanecarboxamide]: at TYK2 JH2 (setting [2]), the Kd was not above 100 nM. Besides, the IC50 in assay [1] is not above 500 nM.

Take `CNc1ncc(-c2nc3ccc(N4CC5COCC(C5)C4)cn3n2)c2cc(NC(=O)C3CC3)ncc12` [Example 583, N-(5-(6-(3-oxa-7-azabicyclo[3.3.1]nonan-7-yl)-[1,2,4]triazolo[1,5-a]pyridin-2-yl)-8-(methylamino)-2,7-naphthyridin-3-yl)cyclopropanecarboxamide]: the Kd at TYK2 JH2 (setting [2]) was not above 100 nM. Also, the IC50 in assay [1] was not above 500 nM.

`CNc1ncc(-c2nc3ccc(N4CC5CCC(C4)O5)cn3n2)c2cc(NC(=O)C3CC3)ncc12` [Example 584, N-(5-(6-(8-oxa-3-azabicyclo[3.2.1]octan-3-yl)-[1,2,4]triazolo[1,5-a]pyridin-2-yl)-8-(methylamino)-2,7-naphthyridin-3-yl)cyclopropanecarboxamide]: on TYK2 JH2 (setting [2]), the Kd is not above 100 nM. For the same compound, the IC50 in assay [1] was not above 500 nM.

In the case of `CNc1ncc(-c2nc3ccc(N4CCOCC4)cn3n2)c2cc(Nc3ccc(C(C)(C)O)c(F)n3)ncc12` [Example 589, 2-(2-fluoro-6-((8-(methylamino)-5-(6-morpholino-[1,2,4]triazolo[1,5-a]pyridin-2-yl)-2,7-naphthyridin-3-yl)amino)pyridin-3-yl)propan-2-ol], the Kd at TYK2 JH2 (setting [2]) is not above 100 nM. Also, the IC50 in assay [1] was not above 500 nM.

As to `CNc1ncc(-c2nc3ccc(N4CCO[C@@H](C)C4)cn3n2)c2cc(NC(=O)[C@@H]3C[C@@H]3C)ncc12` [Example 590, (1R,2S)-2-methyl-N-(8-(methylamino)-5-(6-((S)-2-methylmorpholino)-[1,2,4]triazolo[1,5-a]pyridin-2-yl)-2,7-naphthyridin-3-yl)cyclopropane-11-carboxamide], the Kd on TYK2 JH2 (setting [2]) is not above 100 nM. Moreover, the IC50 in assay [1] was not above 500 nM.

Turning to `CNc1ncc(C#Cc2ccc(OC)cc2)c2cc(NC(=O)C3CC3)ncc12` [Example 591, N-(5-((4-methoxyphenyl)ethynyl)-8-(methylamino)-2,7-naphthyridin-3-yl)cyclopropanecarboxamide], the Kd on TYK2 JH2 (setting [2]) is not above 100 nM. Further, in assay [1], the IC50 is not above 500 nM.

For `CNc1ncc(C#CC2CCOCC2)c2cc(NC(=O)C3CC3)ncc12` [Example 592, N-(8-(methylamino)-5-((tetrahydro-2H-pyran-4-yl)ethynyl)-2,7-naphthyridin-3-yl)cyclopropanecarboxamide], at TYK2 JH2 (KINOMEscan KdELECT (Assay A)), the Kd is not above 100 nM. Besides, the IC50 in assay [1] is more than 500 nM.

Take `CNc1ncc(C#Cc2cccc(O)c2)c2cc(NC(=O)C3CC3)ncc12` [Example 593, N-(5-((3-hydroxyphenyl)ethynyl)-8-(methylamino)-2,7-naphthyridin-3-yl)cyclopropanecarboxamide]: the Kd at TYK2 JH2 (KINOMEscan KdELECT (Assay A)) is not above 100 nM. For the same compound, in assay [1], the IC50 was not above 500 nM.

In the case of `CCNc1ncc(C#Cc2ccc(OC)cn2)c2cc(NC(=O)C3CC3)ncc12` [Example 594, N-(8-(ethylamino)-5-((5-methoxypyridin-2-yl)ethynyl)-2,7-naphthyridin-3-yl)cyclopropanecarboxamide], the Kd on TYK2 JH2 (KINOMEscan KdELECT (Assay A)) was not above 100 nM. Further, in assay [1], the IC50 is not above 500 nM.

As for `CNc1ncc(C#Cc2ccc3nnn(C)c3c2)c2cc(NC(=O)C3CC3)ncc12` [Example 595, N-(5-((1-methyl-1H-benzo[d][1,2,3]triazol-6-yl)ethynyl)-8-(methylamino)-2,7-naphthyridin-3-yl)cyclopropanecarboxamide], at TYK2 JH2 (KINOMEscan KdELECT (Assay A)), the Kd is not above 100 nM. Besides, in assay [1], the IC50 was not above 500 nM.

Consider `CNc1ncc(C#Cc2ccn(C)n2)c2cc(NC(=O)C3CC3)ncc12` [Example 596, N-(5-((1-methyl-1H-pyrazol-3-yl)ethynyl)-8-(methylamino)-2,7-naphthyridin-3-yl)cyclopropanecarboxamide], for which the Kd on TYK2 JH2 (KINOMEscan KdELECT (Assay A)) was not above 100 nM. Besides, the IC50 in assay [1] is not above 500 nM.

`CNc1ncc(C#Cc2ncn(C)n2)c2cc(NC(=O)C3CC3)ncc12` [Example 597, N-(5-((1-methyl-1H-1,2,4-triazol-3-yl)ethynyl)-8-(methylamino)-2,7-naphthyridin-3-yl)cyclopropanecarboxamide]: the Kd at TYK2 JH2 (KINOMEscan KdELECT (Assay A)) was not above 100 nM. Further, the IC50 in assay [1] was not above 500 nM.

For `CNc1ncc(C#Cc2nc3ccccn3n2)c2cc(NC(=O)C3CC3)ncc12` [Example 598, N-(5-([1,2,4]triazolo[1,5-a]pyridin-2-ylethynyl)-8-(methylamino)-2,7-naphthyridin-3-yl)cyclopropanecarboxamide], on TYK2 JH2 (KINOMEscan KdELECT (Assay A)), the Kd was not above 100 nM. Further, the IC50 in assay [1] is not above 500 nM.

As for `CNc1ncc(C#Cc2ccncn2)c2cc(NC(=O)C3CC3)ncc12` [Example 599, N-(8-(methylamino)-5-(pyrimidin-4-ylethynyl)-2,7-naphthyridin-3-yl)cyclopropanecarboxamide], on TYK2 JH2 (KINOMEscan KdELECT (Assay A)), the Kd was not above 100 nM. The IC50 in assay [1] is not above 500 nM.

For `CNc1ncc(C#Cc2cnco2)c2cc(NC(=O)C3CC3)ncc12` [Example 600, N-(8-(methylamino)-5-(oxazol-5-ylethynyl)-2,7-naphthyridin-3-yl)cyclopropanecarboxamide], at TYK2 JH2 (KINOMEscan KdELECT (Assay A)), the Kd is not above 100 nM. For the same compound, in assay [1], the IC50 is not above 500 nM.

Turning to `CNc1ncc(C#Cc2ccnc(C)c2)c2cc(NC(=O)C3CC3)ncc12` [Example 601, N-(8-(methylamino)-5-((2-methylpyridin-4-yl)ethynyl)-2,7-naphthyridin-3-yl)cyclopropanecarboxamide], on TYK2 JH2 (KINOMEscan KdELECT (Assay A)), the Kd is not above 100 nM. In assay [1], the IC50 is not above 500 nM.

With `CNc1ncc(C#Cc2ccn3cnnc3c2)c2cc(NC(=O)C3CC3)ncc12` [Example 607, N-(5-([1,2,4]triazolo[4,3-a]pyridin-7-ylethynyl)-8-(methylamino)-2,7-naphthyridin-3-yl)cyclopropanecarboxamide], the Kd at TYK2 JH2 (KINOMEscan KdELECT (Assay A)) was not above 100 nM. Also, in assay [1], the IC50 is not above 500 nM.

As for `CNc1ncc(C#Cc2ccc(O)c(C#N)c2)c2cc(NC(=O)C3CC3)ncc12` [Example 608, N-(5-((3-cyano-4-hydroxyphenyl)ethynyl)-8-(methylamino)-2,7-naphthyridin-3-yl)cyclopropanecarboxamide], the Kd at TYK2 JH2 (KINOMEscan KdELECT (Assay A)) was not above 100 nM. Also, the IC50 in assay [1] was not above 500 nM.

For the compound `CNc1ncc(C#Cc2ccn3ncnc3c2)c2cc(NC(=O)C3CC3)ncc12` [Example 609, N-(5-([1,2,4]triazolo[1,5-a]pyridin-7-ylethynyl)-8-(methylamino)-2,7-naphthyridin-3-yl)cyclopropanecarboxamide], the Kd at TYK2 JH2 (KINOMEscan KdELECT (Assay A)) was not above 100 nM. The IC50 in assay [1] is not above 500 nM.

On to `CNc1ncc(C#Cc2ccc(S(C)(=O)=O)cc2)c2cc(NC(=O)C3CC3)ncc12` [Example 610, N-(8-(methylamino)-5-((4-(methylsulfonyl)phenyl)ethynyl)-2,7-naphthyridin-3-yl)cyclopropanecarboxamide], for which the Kd at TYK2 JH2 (KINOMEscan KdELECT (Assay A)) was not above 100 nM. In assay [1], the IC50 is not above 500 nM.

As to `CNc1ncc(C#Cc2cnc3cccnn23)c2cc(NC(=O)C3CC3)ncc12` [Example 611, N-(5-(imidazo[1,2-b]pyridazin-3-ylethynyl)-8-(methylamino)-2,7-naphthyridin-3-yl)cyclopropanecarboxamide], the Kd on TYK2 JH2 (KINOMEscan KdELECT (Assay A)) is not above 100 nM. Also, the IC50 in assay [1] is not above 500 nM.

As to `CNc1ncc(C#Cc2ccncc2OC)c2cc(NC(=O)C3CC3)ncc12` [Example 612, N-(5-((3-methoxypyridin-4-yl)ethynyl)-8-(methylamino)-2,7-naphthyridin-3-yl)cyclopropanecarboxamide], the Kd on TYK2 JH2 (KINOMEscan KdELECT (Assay A)) is not above 100 nM. For the same compound, the IC50 in assay [1] is not above 500 nM.

Regarding `CNc1ncc(C#Cc2ccc(OC)cn2)c2cc(NC(=O)C3CC3)ncc12` [Example 613], the Kd at TYK2 JH2 (KINOMEscan KdELECT (Assay A)) was not above 100 nM. Besides, the IC50 in assay [1] is not above 500 nM.

As to `CNc1ncc(C#Cc2ccc3c(c2)n(C)c(=O)n3C)c2cc(NC(=O)C3CC3)ncc12` [Example 614, N-(5-((1,3-dimethyl-2-oxo-2,3-dihydro-1H-benzo[d]imidazol-5-yl)ethynyl)-8-(methylamino)-2,7-naphthyridin-3-yl)cyclopropanecarboxamide], the Kd at TYK2 JH2 (KINOMEscan KdELECT (Assay A)) is not above 100 nM. In addition, in assay [1], the IC50 is not above 500 nM.

Take `CNc1ncc(C#Cc2ccn3c(C)nnc3c2)c2cc(NC(=O)C3CC3)ncc12` [Example 615, N-(5-((3-methyl-[1,2,4]triazolo[4,3-a]pyridin-7-yl)ethynyl)-8-(methylamino)-2,7-naphthyridin-3-yl)cyclopropanecarboxamide]: the Kd at TYK2 JH2 (KINOMEscan KdELECT (Assay A)) is not above 100 nM. In assay [1], the IC50 was not above 500 nM.
